Laboratory results reported in US5567704A, “R-enatiomerically pure hydroxylated xanthine compounds to treat baldness” (priority 1995, dated 1996).

Experiments:
[1] = tested on: HUVEC; assay: adhesion of U937 cells to activated HUVEC; format: cell-based, human; conditions: 250 μM, FIG. 21
Method: Murine peritoneal exudate cell macrophages (PEC) were isolated by perfusion of mouse peritoneum and plated into 96-well trays at 5×10^5 cells per well. Cells were stimulated with 5 μg/ml Salmonella abortus equi -derived endotoxin (LPS; Sigma Chemical Co., L-1887) or […] IL-1α (Genzyme; Cambridge, Mass.) with or without the addition of CT1501R added to the cultures one hour prior to addition of the stimulus. At various times thereafter, supernatants were removed and levels of either TNF-α or IL-1α were assayed using commercial 96-well microtiter immunoassay kits (Genzyme; TNF; Endogen, Boston, Mass.; IL-1α) according to manufacturer's specifications. For the adhesion studies, early passage human umbilical vein endothelial cells (HUVEC) were obtained. from commercial suppliers (Clonetics, San Diego, Calif. or Cell Systems, Seattle, Wash.) and cultured in defined, Hepes buffered, serum free medium (Cell Systems, cat 301-180) supplemented with acidic FGF (Cell Systems cat 401-111). 4000 cells were plated into each well of a 96-well microtiter plate and allowed to incubate for 72 hrs at 37° C. […] After addition of […] Hanks Balanced Salt Solution (HBSS), the microtiter plate was then analyzed on a Millipore Cytofluor fluorescent plate reader (excitation 488 nm; emission 525 nm). […]

[2] = tested on: thymocytes; assay: thymocyte costimulator assay (ConA and IL-1α or IL-2); format: cell-based, mice; conditions: drug added two hours prior, FIG. 3
Method: A thymocyte costimulator assay is conducted to evaluate the inventive compounds to inhibit activation and proliferation of thymocytes caused by stimulation with Con A and interleukin-1 (IL-1), or […]. Thymuses are obtained from mice (e.g., female Balb/C mice) and the thymuses are removed and dissociated into culture media (e.g., RPMI 1640 without serum supplementation). The dissociated thymus tissue and cell suspension is transferred to centrifuge tubes and allowed to settle, washed with HBSS and resuspended in serum-supplemented culture media (e.g., RPMI 1640 with 10% fetal calf serum). Any contaminating red cells are lysed, and viable cells are resuspended and counted. Thymocytes are plated (e.g., 96-well plates at a density of 2×10^5 cells/well) and a stimulating agent, such as Con A, IL-1 (e.g., IL-1α) or IL-2 is added to the well. The cells are incubated for 4 days at 37° C. On the fourth day, the cells are pulsed with tritiated thymidine and cell proliferation determined. Inventive compounds are added at the time of stimulating agent addition.
CT1501R was added to the cells at the doses indicated two hours prior to activation with ConA and IL-1α or IL-2. Background counts were less than 200 cpm.

C[C@@H](O)CCCCn1c(=O)c2c(ncn2C)n(C)c1=O [CT1501R, (R)-1-(5-hydroxyhexyl)-3,7-dimethylxanthine]
adhesiveness of activated HUVEC for U937 cells ([1]; 1 hour prior to TNF-α, IL-1α or LPS): marked suppression in the relative adhesiveness of the activated HUVEC
background attachment of U937 cells to HUVEC ([1]; non-activated HUVEC): no significant effect on background attachment of U937 cells to HUVEC
inhibition of thymocyte proliferation [2]: inhibited thymocyte proliferation in a dose-response manner
